Data: PubChem BioAssay (NCI)
“And” between values parts separate entries of the source, which are not always exact repeats. Equal entries are not always repeated.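 Results reflect a 48-hour exposure of cells in 96-well plates to compound at five concentrations. Abbreviation: GI50, concentration required for 50% inhibition of growth. The concentration for full growth arrest is given as TGI.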

Assays:
Test in all cases: growth of human tumour cells (NCI), 48 h
CCRF-CEM leukemia = system: CCRF-CEM leukemia
COLO 205 colon = system: COLO 205 colon
EKVX NSCLC = system: EKVX NSCLC
MCF7 breast = system: MCF7 breast
MDA-MB-435 = system: MDA-MB-435
OVCAR-5 ovarian = system: OVCAR-5 ovarian
SF-268 CNS = system: SF-268 CNS
SK-MEL-28 melanoma = system: SK-MEL-28 melanoma
SN12C renal = system: SN12C renal
UACC-62 melanoma = system: UACC-62 melanoma

SMILES | GI50 (CCRF-CEM leukemia) | TGI (CCRF-CEM leukemia) | GI50 (COLO 205 colon) | TGI (COLO 205 colon) | GI50 (EKVX NSCLC) | TGI (EKVX NSCLC) | GI50 (MCF7 breast) | TGI (MCF7 breast) | GI50 (MDA-MB-435) | TGI (MDA-MB-435) | GI50 (OVCAR-5 ovarian) | TGI (OVCAR-5 ovarian) | GI50 (SF-268 CNS) | TGI (SF-268 CNS) | GI50 (SK-MEL-28 melanoma) | TGI (SK-MEL-28 melanoma) | GI50 (SN12C renal) | TGI (SN12C renal) | GI50 (UACC-62 melanoma) | TGI (UACC-62 melanoma)
COc1cc(C)ccc1C(=O)c1ccc(C)cc1OC | 5570 nM | > 100 µM | 2550 nM | 9.34 µM | 5.29 µM | > 100 µM | 920 nM | > 100 µM | 295 nM | 1.08 µM | 7.02 µM | > 100 µM | 7.92 µM | > 100 µM | 6.96 µM | > 100 µM | 15.7 µM | > 100 µM | 4.45 µM | > 100 µM
C=C1CCC2C3(C)COC(C)(C)OC3CCC2(C)C1C/C=C1/C(=O)OCC1OC(C)=O (stereo not given) | 1810 nM | 11.5 µM | 1720 nM | 3.43 µM | 9.5 µM | 24.4 µM | 1760 nM | 7.99 µM | 2540 nM | 11.3 µM | 3.78 µM | 11.2 µM | 5.83 µM | 17.6 µM | 2.21 µM | 4.94 µM | 5.95 µM | 22.6 µM | 4.04 µM | 17 µM
COc1ccc2c(c1)C(=O)/C(=C/c1cccc(OCC(=O)c3ccccc3)c1)CC2 | 2480 nM | 7.67 µM | 88500 nM | > 100 µM | 13.9 µM | > 100 µM | 4530 nM | > 100 µM | 2090 nM | 10.5 µM | > 100 µM | > 100 µM | 45.2 µM | > 100 µM | 32.8 µM | > 100 µM | 61 µM | > 100 µM | 12.8 µM | > 100 µM
Cc1ccc(S(=O)(=O)SC/C=C\CSS(=O)(=O)c2ccc(C)cc2)cc1 | – | 37.6 µM | 8940 nM and 18800 nM | 33.1 µM and 33.6 µM | – | > 100 µM | – | > 77.2 µM | – | 27.6 µM | > 78.5 µM and 30 µM | > 100 µM | – | > 73.2 µM and 74.4 µM | 39.7 µM and 18.8 µM | > 78.8 µM and 35.5 µM | – | 88.5 µM and 37.1 µM | – | > 79.9 µM and 45.5 µM
CO/N=C(\COc1ccc2c(c1)[nH]c1ccccc12)c1ccc(OC)cc1 | > 100000 nM | > 100 µM | 92300 nM | > 100 µM | 26 µM | > 100 µM | 49800 nM | > 100 µM | 43300 nM | > 100 µM | 61 µM | > 100 µM | 56.1 µM | > 100 µM | 11.8 µM | 69.3 µM | 57.9 µM | > 100 µM | 26.6 µM | > 100 µM
CCc1c2c(nc3ccc(OCc4ccc(B(O)O)cc4)cc13)-c1cc3c(c(=O)n1C2)COC(=O)[C@]3(O)CC | < 10 nM | > 100 µM | 85.5 nM | 8.46 µM | 0.614 µM | > 64 µM | < 10 nM | – | 76 nM | 3.5 µM | 0.253 µM | – | – | – | 0.477 µM | > 100 µM | < 0.013 µM | > 100 µM | < 0.01 µM | 0.155 µM
N#C[Se]Cc1cc(-c2ccccc2)n(-c2ccc(S(N)(=O)=O)cc2)n1 | 914 nM | > 27.3 µM | 1930 nM | 3.61 µM | 0.688 µM | 12.6 µM | 420 nM | 9.78 µM | 605 nM | 2.45 µM | 1.86 µM | 3.97 µM | 0.336 µM | 1.33 µM | 0.359 µM | 1.34 µM | 0.527 µM | 4.1 µM | 1.66 µM | 3.75 µM
Cc1c2cnccc2c(C)c2c1c1cc(C#N)ccc1n2C | 249 nM | 2.83 µM | 180 nM | 1.08 µM | 0.219 µM | 0.624 µM | 262 nM | 1.12 µM | 271 nM | 0.899 µM | 0.262 µM | 1.47 µM | 0.209 µM | 1.59 µM | 0.285 µM | 0.737 µM | 0.149 µM | 1.14 µM | 0.148 µM | 0.343 µM
COc1ccc(-c2noc(C(=O)O)c2-c2cc(OC)c(OC)c(OC)c2)cc1 | 3520 nM | > 100 µM | 1950 nM | 9.49 µM | 4.77 µM | > 100 µM | 1340 nM | > 100 µM | 306 nM | 1.1 µM | 5.82 µM | > 100 µM | 7.63 µM | > 100 µM | 37.3 µM | > 100 µM | 37.2 µM | > 100 µM | 11.1 µM | > 100 µM
C/C(=N/O)c1cccc(Nc2cc(-n3nnc4ccccc43)nc3ccccc23)c1 | 3980 nM | 18.6 µM | 32400 nM | > 73 µM | 8.07 µM | > 32 µM | 14400 nM | > 55.6 µM | 13700 nM | 37.1 µM | 22.5 µM | 84.9 µM | 17.2 µM | > 64 µM | 21.1 µM | > 68 µM | 8.96 µM | 30.5 µM | 12.7 µM | 34 µM
O=S(=O)(Nc1ccc(Br)cc1)c1ccc(-c2cnc(C3CC3)o2)cc1 | 2140 nM | 16.2 µM | 2530 nM | 12.1 µM | 3.39 µM | 17.5 µM | 651 nM | 13.9 µM | 239 nM | 0.646 µM | 4.55 µM | 17.1 µM | 5.05 µM | 22.4 µM | 10 µM | 22.9 µM | 4.41 µM | 18.2 µM | 1.39 µM | 13.7 µM
FC(F)(F)c1cccc(-c2nc3nc(Cl)c(Cl)nc3[nH]2)c1 | – | 7.99 µM | – | 2.98 µM | – | 23.2 µM | – | 8.95 µM | – | 13 µM | – | 16 µM | – | > 65.8 µM | – | 27.3 µM | – | > 35.9 µM | – | 24.5 µM
CCN1C(=O)N(CC)C2C1NN=c1s/c(=C\c3ccc(Cl)cc3Cl)c(=O)n12 (stereo not given) | 36.1 nM | > 100 µM | 26.3 nM | 0.0748 µM | 0.0423 µM | > 100 µM | 32.2 nM | > 43.4 µM | 20.6 nM | 0.0572 µM | 0.0547 µM | > 81.5 µM | 0.0485 µM | > 67.5 µM | 2.48 µM | > 100 µM | 0.0482 µM | > 53.4 µM | 0.064 µM | > 51.5 µM
O=C(c1ccc2ccccc2c1)c1c(C(F)(F)F)n([O-])c2ccc(C(F)(F)F)cc2[n+]1=O | 181 nM | 0.547 µM | 724 nM | 1.83 µM | 1.54 µM | 3.2 µM | 392 nM | 1.56 µM | 1750 nM | 3.35 µM | 0.992 µM | 4.2 µM | 0.783 µM | 2.37 µM | 1.48 µM | 2.86 µM | 1.39 µM | 3.3 µM | 1.72 µM | 3.21 µM
N#CC(C#N)=C/C=C(\Cl)c1ccc(Cl)cc1 | 425 nM | > 100 µM | 7720 nM | > 52.1 µM | 23.8 µM | 55.4 µM | 14000 nM | > 100 µM | 2730 nM | 10 µM | 8.78 µM | 24.5 µM | 14.1 µM | 50.5 µM | 2.38 µM | 45 µM | 4.52 µM | 26.7 µM | 6.13 µM | 22.8 µM
CC1CC(C)CC(C)C(O)/C(C#N)=C/C=C/CC(C2CCCC2C(=O)O)OC(=O)CC(O)C(C)C1 (stereo not given) | 24.1 nM | – | 56.5 nM | 0.27 µM and 0.412 µM | 0.0518 µM | 0.384 µM and 0.465 µM | 6.14 nM | 0.0436 µM | 28.1 nM | 0.0871 µM and 0.0731 µM | 0.023 µM | 0.282 µM and < 0.0365 µM | 0.0307 µM | 0.311 µM and 0.117 µM | 0.0262 µM | 0.0847 µM and 0.0392 µM | 0.0342 µM | 0.342 µM and 0.727 µM | 0.0112 µM | 0.0296 µM and 0.015 µM
C=CCc1c(Cl)nc(Cl)nc1Cl | – | 0.0234 µM | – | 0.696 µM | – | 2.58 µM | – | 0.668 µM | – | 1.4 µM | – | 2.02 µM | – | 14.4 µM | – | 1.93 µM | – | 1.46 µM | – | 2.07 µM
O=C(O)c1nc(NCc2nc3cc(Cl)ccc3o2)n[nH]1 | > 100000 nM | > 100 µM | > 100000 nM | > 100 µM | > 100 µM | > 100 µM | > 100000 nM | > 100 µM | > 100000 nM | > 100 µM | > 100 µM | > 100 µM | > 100 µM | > 100 µM | > 100 µM | > 100 µM | > 100 µM | > 100 µM | > 100 µM | > 100 µM
c1ccc(C2ONC3=NCCN32)cc1 (stereo not given) | 21600 nM | 53.4 µM | 41600 nM | > 100 µM | > 100 µM | > 100 µM | 55900 nM | > 100 µM | 93900 nM | > 100 µM | 67.9 µM | > 100 µM | 54.3 µM | > 100 µM | > 100 µM | > 100 µM | – | – | 39.4 µM | > 100 µM
C[C@@H](NC(C#N)c1ccco1)c1ccccc1 (stereo not given in full) | – | > 100 µM | – | – | – | > 100 µM | – | > 100 µM | – | > 100 µM | – | > 100 µM | – | > 100 µM | – | > 100 µM | – | > 100 µM | – | > 100 µM
